Experimental findings from patent US8906685B2, “Hanging drop devices, systems and/or methods” (The Regents of The University of Michigan, priority 2010, dated 2014) are described below.

In test [1] the test system is A431.H9 spheroids. The experiment in a line: time-lapse images of drug-treated spheroids in 384 hanging drop array plate. Format: cell-based, human. To be noted: all 3 spheroid sizes, 96 hours; for spheroid size over the drug treatment period: 10 μM drug; for spheroid viability / integrity over the drug treatment period: 5000 μM drug. On the procedure:
(§1) According to the procedure mentioned above, A431.H9 spheroids at the specified cell numbers were formed, and their growth media were exchanged every other day. TPZ and 5-FU stock solutions of four times the final testing concentrations (0, 0.1, 1, 10, 100, 1000, 5000 μM) were initially prepared in Dulbecco's phosphate buffered saline (D-PBS) (Gibco 14190, Invitrogen). On day 2 of A431.H9 spheroid culture, 5 μl of the appropriate concentration of TPZ (or 5-FU) stock solutions was subsequently added to each of the 15 μl A431.H9 cell hanging drop droplets. Cellular viability was monitored at 24, 48, 72, and 96 hours of drug incubation using alamarBlue (Invitrogen). Following manufacturer's protocol, 2 μl (one-tenth of each hanging drop sample volume) of alamarBlue was added to each A431.H9 hanging drop spheroid sample and incubated for 2 hours. Following incubation, each A431.H9 hanging drop spheroid sample plate was read using a plate reader (FLx800 Fluorescence Microplate Reader, Biotek) at 525 nm excitation and 590 nm emission to obtain fluorescence intensity readout. As the fluorescence intensity of alamarBlue is directly proportional to cell number, the average percent cell viability for each drug concentration can be calculated easily by normalizing to the 0 μM untreated spheroid control. Anti-cancer drug sensitivity experiments under 2D control conditions were performed in standard tissue culture treated 96-well plates (Corning Costar 3596), with everything else being the same as the 3D spheroid experiments. 50% of culture media was replaced by fresh media every other day.
FIGS. 3a-c show the time-lapse images of A431.H9 spheroids treated with TPZ at 0, 10, and 5000 μM for 3 different spheroid sizes (300, 1500, and 7500-cell spheroids). The control untreated A431.H9 spheroids at all 3 sizes still grow and proliferate properly over the duration of drug treatment. […] The IC50 of A431.H9 cells cultured in conventional 2D condition is about 50 μM, while the IC50 of the A431.H9 3D spheroids for all 3 sizes is about 8 μM. Contrary to most anti-cancer drugs, A431.H9 cells treated with TPZ are more resistant when cultured under 2D conditions rather than 3D conditions.
Similarly, FIGS. 4a-c show the time-lapse images of A431.H9 spheroids treated with 5-FU at 0, 10, and 5000 μM for 3 different spheroid sizes (300, 1500, and 7500-cell spheroids). Again, the control untreated A431.H9 spheroids at all 3 sizes all look healthy and still proliferate properly over the duration of drug treatment. […] By 96 hours after drug treatment, significant portions of cells had already dissociated from the A431.H9 spheroids, indicating drug cytotoxicity. […]

Test [2] has as its system A431.H9 spheroids. As to the kind of experiment: anti-cancer drug sensitivity testing, 3D spheroids in 384 hanging drop array plate, alamarBlue cell viability. Format: cell-based. Conditions: Homo sapiens. On the procedure:
To investigate the stability of long-term hanging drop spheroid culture using the designed array plate, osmolality measurements were performed while culturing three types of cells: kidney fibroblast cell (COS7), murine embryonic stem (mES) cell (ES-D3), and a human carcinoma cell that stably express mesothelin (A431.H9). Prior to performing hanging drop culture using the plate, ES-D3 cells were cultured in dishes coated with 0.1% w/v porcine gel (Sigma-Aldrich) and maintained in medium consisting of Dulbecco's Modified Eagle's Medium (DMEM) (Gibco 11960, Invitrogen) with 15% v/v fetal bovine serum (FBS) (Gibco 10082, Invitrogen), 4 mM L-glutamin (Invitrogen), 0.1 mM 2-mercapto-ethanol (Sigma-Aldrich), 0.02% v/v sodium pyruvate (Sigma-Aldrich), 100 U ml^−1 penicillin (Invitrogen), 100 U ml^−1 streptomycin (Invitrogen), and 1000 U ml^−1 ESGRO (Invitrogen) which contains leukemia inhibitory factor (LIF). COS7 and A431.H9 cells were cultured in DMEM (Gibco 11965, Invitrogen) with 10% v/v FBS (Gibco 10082, Invitrogen), and 1% v/v antibiotic-antimicotic (Gibco 15240, Invitrogen). All the cells were cultured in a humidified incubator (37° C. in an atmosphere of 5% CO^2). Cell suspensions for the hanging drop experiments were made by dissociating cells with 0.25% trypsin-EDTA (Gibco 25200, Invitrogen), centrifugation of dissociated cells at 1000 rpm for 1 min at room temperature, and re-suspended in growth media. Cell density was estimated using a hemocytometer.
On the spheroid culture plate, a 15 μl cell suspension was dispensed into the access hole at each cell culture site to form a hanging drop. In order to prevent evaporation, 4 ml of distilled water was added into the peripheral water reservoir. In addition, the plate was sandwiched by a well-plate lid and a 96-well plate filled with distilled water, and wrapped using a Parafilm. The growth media was exchanged every other day by taking 5 μl solution from a drop, and adding 7 μl fresh growth media into a drop. For the osmolality measurement, 10 μl sample solution was pipetted out from a drop and transferred to a vapor pressure osmometer (Vapro Model 5520, Wesco, Inc.) for analysis.
as §1, with “Anti-cancer drug sensitivity experiments under 2D control conditions were performed in standard tissue culture treated 96-well plates (Corning Costar 3596), with everything else being the same as the 3D spheroid experiments. 50% of culture media was replaced by fresh media every other day.” left out

For a further test, the system named is A431.H9 cells. The experiment in a line: anti-cancer drug sensitivity testing, conventional 2D culture in 96-well plates, alamarBlue cell viability. Format: cell-based. To be noted: Homo sapiens, % cell viability 96 hours after drug treatment, read-out: IC50 of A431.H9 cells cultured in conventional 2D condition. The protocol:
To investigate the stability of long-term hanging drop spheroid culture using the designed array plate, osmolality measurements were performed while culturing three types of cells: kidney fibroblast cell (COS7), murine embryonic stem (mES) cell (ES-D3), and a human carcinoma cell that stably express mesothelin (A431.H9). […]
According to the procedure mentioned above, A431.H9 spheroids at the specified cell numbers were formed, and their growth media were exchanged every other day. […] Cellular viability was monitored at 24, 48, 72, and 96 hours of drug incubation using alamarBlue (Invitrogen). […] Following incubation, each A431.H9 hanging drop spheroid sample plate was read using a plate reader (FLx800 Fluorescence Microplate Reader, Biotek) at 525 nm excitation and 590 nm emission to obtain fluorescence intensity readout. As the fluorescence intensity of alamarBlue is directly proportional to cell number, the average percent cell viability for each drug concentration can be calculated easily by normalizing to the 0 μM untreated spheroid control. […]
In general terms: The colour change of resazurin is a common sign of viable cells or microbes.

[3] abbreviates: ALL3, 96 h, 3D condition, all 3 spheroid sizes (300, 1500, 7500-cell), 96 hours after drug treatment.

One may read the IC50 as the concentration needed to halve the response being measured. As to `Nc1n[n+]([O-])c2ccccc2[n+]1[O-]` [TPZ, tirapazamine], in the test with A431.H9 spheroids [1], the “spheroid size over the drug treatment period” value is listed as “stayed relatively constant” and the “spheroid viability / integrity over the drug treatment period” value is on record as “poor viability”. The IC50 in the test on A431.H9 spheroids [2] (setting [3]) is ~8 µM. Further, the IC50 with A431.H9 cells was ~50 µM.
As to `O=c1[nH]cc(F)c(=O)[nH]1` [5-FU, 5-fluorouracil], the “spheroid size over the drug treatment period” value in the test on A431.H9 spheroids [1] is given as “slowly become smaller”. In the test with A431.H9 spheroids [1], the “spheroid viability / integrity over the drug treatment period” value is given as “spheroid integrity was greatly compromised”. Further, the IC50 with A431.H9 spheroids [2] (96 h, 300-cell spheroids, 96 hours after treatment) is ~3 µM; in the test on A431.H9 spheroids [2] (96 h, 1500-cell spheroids, 96 hours after treatment), ~1 µM; in the test with A431.H9 spheroids [2] (96 h, 7500-cell spheroids, 96 hours after treatment) it was ~90 µM; in the test on A431.H9 spheroids [2] (setting [3]) it was 1 to 100 µM; in the test with A431.H9 cells it was ~0.1 µM.
